Results as given in patent US12577273B2, “Small molecule modulators of gut bacterial bile acid metabolism” (priority 2019, dated 2026).
Several values for one entry are separate records, joined by “and”; a condition that tells them apart may be missing. Equal values may be shown once. Entries after “also recorded” stand apart in the source; their conditions may differ. Read-outs that look alike come from different tables or passages of the source.

Key:
B. theta BSH [1] = target: T1, B. theta BSH (Bacteroides thetaiotaomicron, UniProt Q8A600); assay: Inhibitor screen using rBSH, B. theta BSH (UPLC-MS % deconjugation)
B. longum BSH = target: T2, B. longum BSH (Bifidobacterium longum, UniProt Q9KK62); assay: Inhibitor screen using rBSH, B. longum BSH (UPLC-MS % deconjugation); assay type: biochemical, Bifidobacterium longum SBT2928; set-up: His6 (C); made in house; host or cells: Escherichia coli (as for the B. theta enzyme); conditions: 100 μM inhibitor; 2 h, 5 h and 21 h timepoints
T2 sequence (Q9KK62 1-317): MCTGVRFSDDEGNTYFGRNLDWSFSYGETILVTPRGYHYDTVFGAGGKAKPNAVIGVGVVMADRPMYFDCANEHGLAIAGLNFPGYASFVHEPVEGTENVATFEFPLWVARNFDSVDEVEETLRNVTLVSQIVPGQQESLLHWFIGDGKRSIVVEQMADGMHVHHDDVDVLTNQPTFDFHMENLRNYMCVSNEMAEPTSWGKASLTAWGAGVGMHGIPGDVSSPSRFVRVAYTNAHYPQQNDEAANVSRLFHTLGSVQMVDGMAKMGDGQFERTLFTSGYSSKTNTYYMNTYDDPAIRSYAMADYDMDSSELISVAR
Protocol: B. longum rBSH. Recombinant BSH from B. longum SBT2928 was expressed and purified as above, except 0.25 mM IPTG was used for protein expression and 1 mM TCEP for protein purification.
Inhibitor Screen Using rBSHs.

C57BL/6 mice = assay type: in vivo, mouse; conditions: single gavage 10 mg/kg; for BSH activity in feces: 1 day and 1.5 days post-gavage
Protocol: Mice were split into two groups of four mice each and were gavaged with either 200 μL of corn oil containing 5% DMSO (vehicle group) or with 200 μL of corn oil containing 7 at a concentration of 1.25 mg/mL (experimental group). For the fecal pellet collection, each mouse was transferred to a temporary cardboard cage for a few minutes until it defecated.
Quantification of Bile Acids in Tissues and Plasma.
Determination of Microbial Biomass by Plating. Frozen fecal pellets were used to determine colony forming units (CFU/g). Feces were suspended in PBS buffer in an anaerobic chamber. Serial dilutions were plated on CHG agar plates (see “Bacterial Culturing”) and incubated at 37° C.
Isolation of Fecal Bacterial Microbiota and 16S rRNA Gene Sequencing Analysis. Mouse fecal microbiota DNA was isolated by using ZymoBIOMICS 96 DNA Kit (ZymoBIOMICS™) according to the manufacturer's instructions. […]
Gel electrophoresis was used to check the success of PCR amplification. The concentration of the PCR product was measured by the Quan-IT dsDNA high sensitivity assay. ˜120 ng of DNA of each PCR product was pooled together to generate an aggregated library for downstream processing. PCR DNA amplicons between 300-500 bp were selected from the aggregated library on a targeted size selection platform (pippin prep 1.5% agarose cassette from Sage Sciences) according to the manufacturer's instructions. The size of DNA amplicons was characterized on an Agilent Technologies 2100 bioanalyzer trace. DNA concentration of the aggregated library was measured by the Quant-IT dsDNA high sensitivity assay. […] 600 ul of the denatured and diluted library with 20% phiX spike-in (120 ul, 7.5 pM of phiX) was loaded onto the MiSeq V2 reagent cartridge (Illumina) and was sequenced with paired-end 250 bp reads using the custom primers described above. […] The resulting FASTQ sequences were then quality-filtered and analyzed by following QIIME_mothur_DADA2.^56-59 Operational Taxonomic Units (OTUs) were picked with 97% sequence similarity. […]

L. plantarum = assay: Inhibitor screen in bacteria, L. plantarum culture; assay type: cell-based, Lactobacillus plantarum WCFS1; conditions: FIG. 2c, L. plantarum culture; 100 μM inhibitor, 100 μM bile acid pool, 21 h; replicates 1-3
[2] = system: BSH activity in conventional mouse feces; assay: Screen of inhibitors in conventional mouse feces; assay type: biochemical; conditions: 20 μM inhibitor, 30 min, then GCDCA-d4 100 μM, 18 hours
Protocol: Screen of Inhibitors in Conventional Mouse Feces. […] The tubes were then frozen in dry ice for 5 mins and upon thawing were diluted with an equal volume of methanol. […] The supernatant was removed into a clean eppendorf tube and centrifuged again. […] The concentration of product detected from these assays was reported directly.

B. theta BSH [3] = target: T1, B. theta BSH; assay: Mass spectrometry analysis for identifying labeled residue on BSH; assay type: binding
Protocol: Mass Spectrometry Analysis for Identifying Labeled Residue on BSH. BSH protein was incubated with DMSO or a 10-fold molar excess of inhibitor 7 for 2 h at room temperature. Reactions were then analyzed by LC-MS using a Shimadzu LC and autosampler system (Shimadzu, Marlborough, MA) interfaced to an LTQ ion trap mass spectrometer (ThermoFisher Scientific, San Jose, CA).
To determine the site of modification, compound 7 modified protein was analyzed as described above, except that the LC system was interfaced to an Orbitrap Lumos Mass Spectrometer (ThermoFisher Scientific). […] Ion assignments were performed using mzStudio software.^50

B. theta BSH KO strain = assay: Incubation with BSH-deleted B. theta strain; conditions: 100 μM inhibitor
B. theta = assay: Determination of IC50 of compound 7 in B. theta cultures
[4] = Supplementary FIG. 3a, 5 hours, 100 μM inhibitor, 200 nM rBSH, bile acid pool, replicates 1-3

With C[C@H](CCC(=O)CF)[C@H]1CC[C@H]2[C@@H]3[C@H](O)C[C@@H]4C[C@H](O)CC[C@]4(C)[C@H]3CC[C@]12C [Compound 7] the “% deconjugation of TβMCA” value (B. theta BSH [1]; FIG. 2a, 2 hours, 100 μM inhibitor, 200 nM rBSH, bile acid pool, replicates 1-3) was 0.00%, the “% deconjugation of TβMCA” value (B. theta BSH [1]; FIG. 2a, 21 hours, 100 μM inhibitor, 200 nM rBSH, bile acid pool, replicates 1-3) was 0.00% and the “% deconjugation of TCA” value (B. theta BSH [1]; [4]) was 0.00%. For the same molecule, the “% deconjugation of TβMCA” value (B. theta BSH [1]; [4]) was 0.00%, the inhibition at 100 µM (B. theta BSH [1]; read-out: inhibition of B. theta BSH activity for 21 hours) was over 98% and the “inhibition of B. longum BSH (in words)” value (B. longum BSH) was “most potent inhibitor; also recorded: most active inhibitor”. For the same molecule, the “BSH activity in feces” value (C57BL/6 mice; 10 mg/kg) was “significant decrease in BSH activity in feces”, the “BSH activity in feces” value (C57BL/6 mice; listed as compound 7, 10 mg/kg) was “significantly lower” and the “fecal deoxycholic acid (DCA)” value (C57BL/6 mice; 1 day post-gavage) was “a decrease in the deconjugated secondary bile acid deoxycholic acid (DCA) was observed”. For the same molecule, the “% deconjugation of TCA” value (L. plantarum) was 0.77% and 0.93% and 1.02%, the “% deconjugation of TDCA” value (L. plantarum) was 3.22% and 0.62% and 0.64% and the “% deconjugation of TUDCA” value (L. plantarum) was 1.46% and 0.97% and 1.32%. The “% deconjugation of TβMCA” value (L. plantarum) was 0.15% and 0.49% and 0.62%, the “BSH activity in resuspended conventional mouse feces (in words)” value [2] was “completely inhibited BSH activity in feces” and the “BSH activity in resuspended conventional mouse feces (in words)” value ([2]; listed as compound 7) was “effectively inhibited BSH activity; also recorded: completely inhibited the BSH activity in feces; also recorded: almost completely inhibited BSH activity”. The “modified residue of B. theta BSH (top-down MS)” value (B. theta BSH [3]; 10-fold excess of compound 7) was “Cys2”, the “shift in mass of BSH after treatment” value (B. theta BSH [3]; 10-fold excess of compound 7, 2 h) was 388 Da and the “shift in the intact mass of the protein” value (B. theta BSH [3]; incubation of B. theta BSH with compound 7) was 388 mass units. For the same molecule, the “bactericidal effect on BSH-deleted B. theta (CFUs after 24 h)” value (B. theta BSH KO strain) was “not found to be bactericidal”, the “effect on bile acid pools with B. theta BSH KO strain” value (B. theta BSH KO strain; 100 μM taurine conjugated pool, 24 h) was “did not alter bile acid pools” and the IC50 (B. theta; Bacteroides thetaiotaomicron, 48 h, read-out: IC50 against B. theta (growing culture), 100 μM TUDCA, 48 h anaerobic growth) was 913 nM. It also gave an IC50 (B. theta; read-out: IC50 against B. theta (growing culture), 100 μM TUDCA, 48 h anaerobic growth) of 1070 nM.
